Values of other authors, collected in patent publication USRE43580E1, “Nasal calcitonin formulations” (Unigene Laboratories, Inc., priority 2000, dated 2012).

What was measured:
[1] = preservative in the nasal formulation
rhinitis medicamentosa = conditions: healthy volunteers, decongestant nasal spray containing the preservative
nasal mucosa = conditions: in vivo
[2] = system: mucocilary transport velocity; conditions: ex vivo frog palate
[3] = system: respiratory mucosal tissue; conditions: exposed in vitro

## benzalkonium chloride
[1]
  Absorption of salmon calcitonin: enhance the absorption of salmon calcitonin
Rhinitis medicamentosa
  Rhinitis medicamentosa: aggravate rhintis rhinitis medicamentosa
Nasal mucosa
  Effect on nasal mucosa: adverse effect on nasal mucosa
[2]
  Mucocilary transport velocity: significant slowing
[3]
  Morphology of respiratory mucosal tissue: severe morphological alterations
